Data reported in patent publication US20210186962A1, “METHODS OF SCHIZOPHRENIA TREATMENT” (INTRA-CELLULAR THERAPIES, INC., priority 2019, published 2021).

What was measured:
[1] = target: dopamine D2 receptors (Homo sapiens, UniProt P14416); assay: Receptor binding affinity, dopamine D2
[2] = test system: muscarinic receptors; assay: Receptor binding, muscarinic; details: at 100 nM
[3] = test system: histaminergic receptors; assay: Receptor binding, histaminergic; details: at 100 nM
[4] = Human mass balance study, 14C-labeled oral dose; type: in vivo
[5] = Plasma protein binding; type: in vitro ADME; details: at 5 μM in human plasma (about 70-fold higher than therapeutic concentrations)
[6] = test system: UGT 1A1, 1A4, 2B15; AKR 1C1, 1B10, 1C4; CYP 3A4, 2C8, 1A2; assay: In vitro studies of enzymes involved in metabolism; type: in vitro ADME
[7] = Pharmacokinetics in specific populations; type: in vivo, human
Text: Use of lumateperone (e.g., lumateperone tosylate) is not recommended for patients with moderate (Child-Pugh class B) to severe hepatic impairment (Child-Pugh class C). […] No dosage adjustment is recommended for patients with mild hepatic impairment (Child-Pugh A).

[8] = Drug interaction: effects of other drugs on lumateperone exposure; parameters: species or system human; details: in vivo
Text: Such concomitant use should therefore be avoided. Moderate CYP 3A4 inhibitors include amprenavir, ciprofloxacin, cyclosporine, diltiazem, erythromycin, fluconazole, fluvoxamine, and verapamil. Strong CYP 3A4 inhibitors include clarithromycin, grapefruit juice, itraconazole, voriconazole, nefazodone, ritonavir, and nelfinavir.
Such concomitant use should therefore be avoided. CYP 3A4 inducers include carbamazepine, phenytoin, rifampin, St. John's wort, bosentan, efavirenz, etravirine, modafinil, nafcillin, aprepitant, armodafinil, pioglitazone, and prednisone.

[9] = Drug interaction: CYP3A4 substrate midazolam; type: in vivo, human; details: single or multiple doses of lumateperone in patients with schizophrenia
[10] = target: CYP1A2 (Homo sapiens, UniProt P05177); assay: In vitro CYP inhibition; type: in vitro ADME
Sequence of CYP1A2 (Homo sapiens, UniProt P05177) (P05177 whole entry): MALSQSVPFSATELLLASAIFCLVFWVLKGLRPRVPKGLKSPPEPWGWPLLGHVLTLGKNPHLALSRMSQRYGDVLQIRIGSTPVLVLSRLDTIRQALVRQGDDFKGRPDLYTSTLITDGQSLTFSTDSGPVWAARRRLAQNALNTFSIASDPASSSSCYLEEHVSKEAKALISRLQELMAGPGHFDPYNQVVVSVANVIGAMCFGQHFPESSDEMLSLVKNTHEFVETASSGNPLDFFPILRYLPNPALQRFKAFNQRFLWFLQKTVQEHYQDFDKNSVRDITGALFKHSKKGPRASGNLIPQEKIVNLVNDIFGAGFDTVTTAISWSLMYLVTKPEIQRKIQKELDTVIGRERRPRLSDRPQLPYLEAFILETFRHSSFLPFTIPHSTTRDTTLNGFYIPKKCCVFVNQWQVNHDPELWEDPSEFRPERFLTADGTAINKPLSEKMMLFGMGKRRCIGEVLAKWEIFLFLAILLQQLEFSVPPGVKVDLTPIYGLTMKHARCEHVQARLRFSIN

[11] = target: CYP2C9 (Homo sapiens, UniProt P11712); assay: In vitro CYP inhibition; type: in vitro ADME
[12] = target: CYP2C19 (Homo sapiens, UniProt P33261); assay: In vitro CYP inhibition; type: in vitro ADME
[13] = target: CYP2D6 (Homo sapiens, UniProt P10635); assay: In vitro CYP inhibition; type: in vitro ADME
Sequence of CYP2D6 (P10635 whole entry): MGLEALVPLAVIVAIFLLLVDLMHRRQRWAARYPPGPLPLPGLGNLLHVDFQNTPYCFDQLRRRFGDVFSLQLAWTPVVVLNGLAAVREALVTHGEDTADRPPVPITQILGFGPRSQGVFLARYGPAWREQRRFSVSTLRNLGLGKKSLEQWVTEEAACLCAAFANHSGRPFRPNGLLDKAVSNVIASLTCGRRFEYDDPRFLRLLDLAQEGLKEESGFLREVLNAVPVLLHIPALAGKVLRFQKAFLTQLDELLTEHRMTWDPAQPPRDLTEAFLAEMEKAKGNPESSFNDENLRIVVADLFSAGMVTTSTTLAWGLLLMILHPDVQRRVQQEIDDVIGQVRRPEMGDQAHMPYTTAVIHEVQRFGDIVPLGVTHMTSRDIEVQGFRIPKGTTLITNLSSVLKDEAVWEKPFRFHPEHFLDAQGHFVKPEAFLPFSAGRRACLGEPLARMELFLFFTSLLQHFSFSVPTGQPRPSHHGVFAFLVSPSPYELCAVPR

[14] = test system: CYP1A2; assay: In vitro CYP induction; type: in vitro ADME
[15] = test system: CYP2B6; assay: In vitro CYP induction; type: in vitro ADME
[16] = test system: CYP3A4; assay: In vitro CYP induction; type: in vitro ADME
[17] = target: P-gp (Homo sapiens, UniProt P08183); assay: In vitro transporter substrate; type: in vitro ADME
Sequence of P-gp (P08183 whole entry): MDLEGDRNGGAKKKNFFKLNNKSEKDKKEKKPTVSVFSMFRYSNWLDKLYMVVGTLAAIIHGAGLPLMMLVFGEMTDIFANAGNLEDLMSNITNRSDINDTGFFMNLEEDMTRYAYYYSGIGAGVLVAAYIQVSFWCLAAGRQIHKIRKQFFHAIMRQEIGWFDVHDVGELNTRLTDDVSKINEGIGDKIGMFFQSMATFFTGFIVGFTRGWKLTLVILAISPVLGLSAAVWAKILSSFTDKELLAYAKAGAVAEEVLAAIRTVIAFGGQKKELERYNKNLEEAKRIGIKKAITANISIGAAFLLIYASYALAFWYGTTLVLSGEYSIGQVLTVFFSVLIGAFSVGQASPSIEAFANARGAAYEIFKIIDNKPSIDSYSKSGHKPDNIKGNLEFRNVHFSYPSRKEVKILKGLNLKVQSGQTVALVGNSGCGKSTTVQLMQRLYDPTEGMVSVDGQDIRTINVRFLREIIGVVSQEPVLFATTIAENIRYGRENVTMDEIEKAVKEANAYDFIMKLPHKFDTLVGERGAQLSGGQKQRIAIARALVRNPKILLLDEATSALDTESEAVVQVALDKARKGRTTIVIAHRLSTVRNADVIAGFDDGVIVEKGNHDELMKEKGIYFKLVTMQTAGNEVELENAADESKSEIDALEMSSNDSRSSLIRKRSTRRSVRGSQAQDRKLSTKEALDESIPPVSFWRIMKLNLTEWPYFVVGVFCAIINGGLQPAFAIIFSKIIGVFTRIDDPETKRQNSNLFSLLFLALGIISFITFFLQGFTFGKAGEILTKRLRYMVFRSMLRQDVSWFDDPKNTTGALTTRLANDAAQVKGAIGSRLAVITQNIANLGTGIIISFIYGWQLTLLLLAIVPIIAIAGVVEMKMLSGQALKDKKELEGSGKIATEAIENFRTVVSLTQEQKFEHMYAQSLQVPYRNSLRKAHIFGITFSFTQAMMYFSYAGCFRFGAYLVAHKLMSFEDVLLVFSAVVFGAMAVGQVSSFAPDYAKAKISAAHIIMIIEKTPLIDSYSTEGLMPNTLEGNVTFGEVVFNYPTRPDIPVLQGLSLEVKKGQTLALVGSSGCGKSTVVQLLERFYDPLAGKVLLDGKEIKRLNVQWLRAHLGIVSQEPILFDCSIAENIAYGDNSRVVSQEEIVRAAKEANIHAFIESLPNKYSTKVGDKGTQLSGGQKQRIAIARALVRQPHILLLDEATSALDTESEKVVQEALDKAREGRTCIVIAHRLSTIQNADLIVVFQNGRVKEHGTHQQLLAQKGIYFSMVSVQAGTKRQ

[18] = target: BCRP (Homo sapiens, UniProt Q9UNQ0); assay: In vitro transporter substrate; type: in vitro ADME
Sequence of BCRP (Q9UNQ0 whole entry): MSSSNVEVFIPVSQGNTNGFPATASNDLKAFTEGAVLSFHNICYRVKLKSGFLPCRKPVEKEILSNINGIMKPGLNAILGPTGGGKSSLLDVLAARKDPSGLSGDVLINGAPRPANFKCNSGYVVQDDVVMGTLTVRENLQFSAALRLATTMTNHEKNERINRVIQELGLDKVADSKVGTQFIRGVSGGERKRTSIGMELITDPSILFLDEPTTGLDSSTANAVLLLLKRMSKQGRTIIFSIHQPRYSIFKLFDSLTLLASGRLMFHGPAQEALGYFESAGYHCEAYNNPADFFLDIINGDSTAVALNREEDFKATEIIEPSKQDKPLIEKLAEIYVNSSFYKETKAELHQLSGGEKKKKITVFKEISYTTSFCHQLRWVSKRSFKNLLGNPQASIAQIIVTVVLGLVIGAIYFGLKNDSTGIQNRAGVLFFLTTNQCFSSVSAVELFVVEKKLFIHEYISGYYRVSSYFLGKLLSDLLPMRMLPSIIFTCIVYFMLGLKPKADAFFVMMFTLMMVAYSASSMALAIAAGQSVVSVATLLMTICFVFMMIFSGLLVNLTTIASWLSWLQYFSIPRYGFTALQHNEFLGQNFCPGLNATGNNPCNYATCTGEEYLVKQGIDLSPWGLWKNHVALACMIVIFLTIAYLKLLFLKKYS

[19] = target: OCT2 (Homo sapiens, UniProt O15244); assay: In vitro transporter inhibition; type: in vitro ADME
[20] = target: OAT1 (Homo sapiens, UniProt Q4U2R8); assay: In vitro transporter inhibition; type: in vitro ADME
[21] = target: (Homo sapiens, UniProt Q8TCC7); assay: In vitro transporter inhibition; type: in vitro ADME
Sequence of (Homo sapiens, UniProt Q8TCC7) (Q8TCC7 whole entry): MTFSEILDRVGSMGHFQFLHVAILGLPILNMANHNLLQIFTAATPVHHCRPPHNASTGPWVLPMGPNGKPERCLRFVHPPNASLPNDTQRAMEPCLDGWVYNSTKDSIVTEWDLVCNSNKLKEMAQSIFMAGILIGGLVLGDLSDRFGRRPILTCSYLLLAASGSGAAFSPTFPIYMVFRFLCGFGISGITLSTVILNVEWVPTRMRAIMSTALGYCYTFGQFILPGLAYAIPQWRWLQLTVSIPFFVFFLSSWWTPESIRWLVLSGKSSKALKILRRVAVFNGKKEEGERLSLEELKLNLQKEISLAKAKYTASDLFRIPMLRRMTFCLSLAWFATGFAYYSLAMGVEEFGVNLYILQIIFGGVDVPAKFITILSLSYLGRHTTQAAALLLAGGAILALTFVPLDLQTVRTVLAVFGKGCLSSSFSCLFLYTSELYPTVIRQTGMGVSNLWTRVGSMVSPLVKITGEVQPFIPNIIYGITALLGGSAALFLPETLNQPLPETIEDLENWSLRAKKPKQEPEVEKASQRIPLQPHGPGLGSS

[22] = target: OATP1B3 (Homo sapiens, UniProt Q9NPD5); assay: In vitro transporter inhibition; type: in vitro ADME
Sequence of OATP1B3 (Q9NPD5 whole entry): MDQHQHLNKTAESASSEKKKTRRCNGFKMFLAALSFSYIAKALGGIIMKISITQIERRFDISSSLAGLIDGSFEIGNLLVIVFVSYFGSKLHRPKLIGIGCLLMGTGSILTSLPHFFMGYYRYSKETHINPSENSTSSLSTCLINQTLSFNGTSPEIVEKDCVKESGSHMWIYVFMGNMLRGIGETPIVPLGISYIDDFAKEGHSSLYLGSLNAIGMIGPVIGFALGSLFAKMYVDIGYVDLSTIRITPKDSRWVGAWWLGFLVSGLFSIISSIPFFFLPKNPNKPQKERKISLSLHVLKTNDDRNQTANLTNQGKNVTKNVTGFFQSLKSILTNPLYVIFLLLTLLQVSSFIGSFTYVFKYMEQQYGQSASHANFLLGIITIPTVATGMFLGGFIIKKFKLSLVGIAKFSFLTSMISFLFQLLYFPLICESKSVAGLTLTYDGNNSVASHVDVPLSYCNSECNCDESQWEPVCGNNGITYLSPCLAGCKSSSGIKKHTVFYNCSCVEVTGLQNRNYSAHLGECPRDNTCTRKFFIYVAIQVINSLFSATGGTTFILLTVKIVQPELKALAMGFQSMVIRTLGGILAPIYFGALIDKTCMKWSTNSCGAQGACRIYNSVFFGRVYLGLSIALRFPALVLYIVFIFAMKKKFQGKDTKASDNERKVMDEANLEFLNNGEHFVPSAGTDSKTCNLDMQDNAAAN

[23] = target: OATP1B1 (Homo sapiens, UniProt Q9Y6L6); assay: In vitro transporter inhibition; type: in vitro ADME
[24] = Pharmacokinetic studies (oral, intravenous, food effect)

Sequence of dopamine D2 receptors (P14416 whole entry): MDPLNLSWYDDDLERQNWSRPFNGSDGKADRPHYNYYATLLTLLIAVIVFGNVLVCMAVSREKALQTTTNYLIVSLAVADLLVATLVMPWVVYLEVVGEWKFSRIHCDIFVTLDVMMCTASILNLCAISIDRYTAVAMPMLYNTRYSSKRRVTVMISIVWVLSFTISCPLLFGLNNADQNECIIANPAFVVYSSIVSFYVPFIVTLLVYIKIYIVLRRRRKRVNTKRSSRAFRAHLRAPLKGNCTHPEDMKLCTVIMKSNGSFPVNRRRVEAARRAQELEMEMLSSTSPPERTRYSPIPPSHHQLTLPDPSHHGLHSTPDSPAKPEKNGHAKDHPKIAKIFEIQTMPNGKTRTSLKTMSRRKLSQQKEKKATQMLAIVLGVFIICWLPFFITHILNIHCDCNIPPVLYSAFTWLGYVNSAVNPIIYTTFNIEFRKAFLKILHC

CN1CCN2c3c(cccc31)[C@@H]1CN(CCCC(=O)c3ccc(F)cc3)CC[C@@H]12 [Lumateperone, 4-((6bR,10aS)-3-methyl-2,3,6b,9,10,10a-hexahydro-1H,7H-pyrido[3′,4′: 4,5]pyrrolo[1,2,3-de]quinoxalin-8-yl)-1-(4-fluoro-phenyl)-butan-1-one]
Ki [1]: 0.032 µM
inhibition, muscarinic receptors [2]: less than 50%
inhibition, histaminergic receptors [3]: less than 50%
lumateperone share of total plasma radioactivity ([4]; after a single 14C-labeled oral dose): about 2.8%
dose excreted as unchanged lumateperone in the urine ([4]; human mass balance study): Less than 1%
metabolites identified in vivo ([4]; in vivo): more than twenty
fraction unbound at 5 μM [5]: 0.026
enzymes involved in metabolism [6]: involved in the metabolism
exposure in patients with moderate and severe hepatic impairment ([7]; Child-Pugh class B and C): higher exposure
differences in pharmacokinetics based on age, sex, or race ([7]; in vivo): No clinically significant differences
effect of concomitant CYP3A4 inducers on lumateperone exposure [8]: decreases the exposure
effect of concomitant moderate or strong CYP3A4 inhibitors on lumateperone exposure [8]: increases lumateperone exposure
effect on pharmacokinetics of midazolam (CYP3A4 substrate) or its metabolite 1-hydroxymidazolam [9]: No clinically significant differences
inhibition of CYP1A2 [10]: little to no inhibition
inhibition of CYP2C9 [11]: little to no inhibition
inhibition of CYP2C19 [12]: little to no inhibition
inhibition of CYP2D6 [13]: little to no inhibition
induction of CYP1A2 [14]: no induction
induction of CYP2B6 [15]: no induction
induction of CYP3A4 [16]: no induction
P-gp substrate [17]: did not appear to be
BCRP substrate [18]: did not appear to be
inhibition of OCT2 [19]: little to no inhibition
inhibition of OAT1 [20]: little to no inhibition
inhibition of OATS [21]: little to no inhibition
inhibition of OATP1B3 [22]: little to no inhibition
inhibition of OATP1B1 [23]: little to no inhibition
increase of mean AUC by food ([24]; high-fat meal): 9%
lowering of mean Cmax by food ([24]; high-fat meal): 33%
Vd ([24]; human, in vivo, iv): ~4.1 L/kg
clearance ([24]; human, in vivo, iv): ~465 mL/min
half-life ([24]; human, in vivo, iv): ~18 h
bioavailability ([24]; human, plasma, oral): ~4.4%
Tmax ([24]; human, plasma, oral, delay of median Tmax by food, high-fat meal): ~1 h
Tmax ([24]; human, plasma, oral, median Tmax, fasted state): 1 h
Tmax ([24]; human, plasma, oral, median Tmax, in the presence of food): 2 h
increase in steady-state exposure with dose ([24]; range of 21 mg to 56 mg): approximately dose-proportional
